Assay results taken from the NIST ThermoML archive (doi:10.1021/je5010214).
Numbers after ± are expanded uncertainties.

Settings: Liquid, Vibrating tube method

CCCCO [butan-1-ol]
Settings	mass density [kg/m3]
343.15 K, 44927 kPa	804.186 ± 0.9
343.15 K, 47908 kPa	806.033 ± 0.91
343.15 K, 50059 kPa	807.349 ± 0.91
343.15 K, 52026 kPa	808.534 ± 0.92
343.15 K, 59944 kPa	813.181 ± 0.94
343.15 K, 61967 kPa	814.212 ± 0.94
343.15 K, 65070 kPa	815.911 ± 0.95
343.15 K, 66059 kPa	816.518 ± 0.96
343.16 K, 34034 kPa	797.101 ± 0.87
343.16 K, 54919 kPa	810.24 ± 0.93
343.16 K, 57986 kPa	812.021 ± 0.93
348.15 K, 88.8 kPa	765.578 ± 0.81
348.15 K, 462.2 kPa	765.945 ± 0.81
348.15 K, 859.8 kPa	766.355 ± 0.81
348.15 K, 974.2 kPa	766.465 ± 0.81
348.15 K, 1974.9 kPa	767.461 ± 0.81
348.15 K, 3051.1 kPa	768.513 ± 0.81
348.15 K, 5094 kPa	770.529 ± 0.81
348.15 K, 10025 kPa	775.087 ± 0.82
348.15 K, 14792 kPa	779.258 ± 0.83
348.15 K, 20111 kPa	783.649 ± 0.84
348.15 K, 22163 kPa	785.27 ± 0.85
348.15 K, 28080 kPa	789.8 ± 0.86
348.15 K, 30149 kPa	791.333 ± 0.86
348.15 K, 32161 kPa	792.797 ± 0.87
348.15 K, 33959 kPa	793.985 ± 0.87
348.15 K, 35045 kPa	794.751 ± 0.88
348.15 K, 37937 kPa	796.729 ± 0.88
348.15 K, 40026 kPa	798.192 ± 0.89
348.15 K, 42066 kPa	799.57 ± 0.89
348.15 K, 47915 kPa	803.304 ± 0.91
348.15 K, 49950 kPa	804.611 ± 0.92
348.15 K, 52167 kPa	805.991 ± 0.92
348.15 K, 55022 kPa	807.759 ± 0.93
348.15 K, 57945 kPa	809.531 ± 0.94
348.15 K, 60030 kPa	810.761 ± 0.94
348.15 K, 64942 kPa	813.608 ± 0.96
348.15 K, 66153 kPa	814.319 ± 0.96
348.16 K, 291.7 kPa	765.77 ± 0.81
348.16 K, 7050.2 kPa	772.352 ± 0.82
348.16 K, 9003.2 kPa	774.145 ± 0.82
348.16 K, 12187 kPa	777.001 ± 0.83
348.16 K, 17899 kPa	781.843 ± 0.84
348.16 K, 25100 kPa	787.55 ± 0.85
348.16 K, 32942 kPa	793.364 ± 0.87
348.16 K, 45051 kPa	801.465 ± 0.9
348.16 K, 62063 kPa	811.961 ± 0.95
353.15 K, 86.2 kPa	760.995 ± 0.81
353.15 K, 336 kPa	761.273 ± 0.81
353.15 K, 572.6 kPa	761.533 ± 0.81
353.15 K, 926 kPa	761.914 ± 0.81
353.15 K, 1016.4 kPa	762.008 ± 0.81
353.15 K, 2992.1 kPa	764.106 ± 0.81
353.15 K, 4963.9 kPa	766.051 ± 0.81
353.15 K, 7000.9 kPa	768.126 ± 0.82
353.15 K, 9062.3 kPa	770.136 ± 0.82
353.15 K, 10005 kPa	771.015 ± 0.82
353.15 K, 12128 kPa	772.98 ± 0.83
353.15 K, 14954 kPa	775.544 ± 0.83
353.15 K, 17977 kPa	778.173 ± 0.84
353.15 K, 19937 kPa	779.792 ± 0.84
353.15 K, 21894 kPa	781.405 ± 0.85
353.15 K, 24908 kPa	783.869 ± 0.85
353.15 K, 27850 kPa	786.199 ± 0.86
353.15 K, 29936 kPa	787.797 ± 0.86
353.15 K, 31876 kPa	789.263 ± 0.87
353.15 K, 32961 kPa	790.048 ± 0.87
353.15 K, 34945 kPa	791.423 ± 0.88
353.15 K, 37913 kPa	793.571 ± 0.89
353.15 K, 40143 kPa	795.172 ± 0.89
353.15 K, 42067 kPa	796.559 ± 0.9
353.15 K, 45002 kPa	798.55 ± 0.9
353.15 K, 48029 kPa	800.525 ± 0.91
353.15 K, 50145 kPa	801.944 ± 0.92
353.15 K, 52082 kPa	803.184 ± 0.92
353.15 K, 55132 kPa	805.077 ± 0.93
353.15 K, 57980 kPa	806.879 ± 0.94
353.15 K, 60098 kPa	808.146 ± 0.95
353.15 K, 65063 kPa	811.071 ± 0.96
353.16 K, 2113.4 kPa	763.181 ± 0.81
353.16 K, 33964 kPa	790.701 ± 0.88
353.16 K, 62043 kPa	809.275 ± 0.95
353.16 K, 66024 kPa	811.636 ± 0.96
358.15 K, 264.1 kPa	755.935 ± 0.81
358.15 K, 508.4 kPa	756.19 ± 0.81
358.15 K, 926.8 kPa	756.64 ± 0.82
358.15 K, 1013.9 kPa	756.732 ± 0.82
358.15 K, 3021.2 kPa	758.947 ± 0.81
358.15 K, 4930 kPa	760.98 ± 0.81
358.15 K, 10073 kPa	766.29 ± 0.82
358.15 K, 12137 kPa	768.259 ± 0.83
358.15 K, 14905 kPa	770.903 ± 0.83
358.15 K, 17041 kPa	772.871 ± 0.84
358.15 K, 17965 kPa	773.738 ± 0.84
358.15 K, 22175 kPa	777.415 ± 0.85
358.15 K, 25059 kPa	779.849 ± 0.86
358.15 K, 28035 kPa	782.278 ± 0.86
358.15 K, 30002 kPa	783.844 ± 0.87
358.15 K, 31978 kPa	785.37 ± 0.87
358.15 K, 32793 kPa	786.01 ± 0.88
358.15 K, 33850 kPa	786.716 ± 0.88
358.15 K, 35027 kPa	787.554 ± 0.88
358.15 K, 37872 kPa	789.731 ± 0.89
358.15 K, 40037 kPa	791.31 ± 0.89
358.15 K, 42100 kPa	792.749 ± 0.9
358.15 K, 47958 kPa	796.761 ± 0.92
358.15 K, 50038 kPa	798.154 ± 0.92
358.15 K, 52081 kPa	799.474 ± 0.93
358.15 K, 55073 kPa	801.393 ± 0.94
358.15 K, 57918 kPa	803.161 ± 0.94
358.15 K, 60043 kPa	804.453 ± 0.95
358.15 K, 62067 kPa	805.674 ± 0.96
358.15 K, 64986 kPa	807.407 ± 0.96
358.15 K, 66109 kPa	808.067 ± 0.97
358.16 K, 95.1 kPa	755.754 ± 0.81
358.16 K, 2083.9 kPa	757.886 ± 0.81
358.16 K, 6993.5 kPa	763.142 ± 0.82
358.16 K, 9030.2 kPa	765.202 ± 0.82
358.16 K, 20162 kPa	775.665 ± 0.84
358.16 K, 45054 kPa	794.81 ± 0.91
363.15 K, 94 kPa	752.456 ± 0.81
363.15 K, 334 kPa	752.741 ± 0.81
363.15 K, 601.7 kPa	753.061 ± 0.81
363.15 K, 892.9 kPa	753.404 ± 0.81
363.15 K, 961.6 kPa	753.487 ± 0.81
363.15 K, 1034.7 kPa	753.567 ± 0.81
363.15 K, 1986 kPa	754.594 ± 0.81
363.15 K, 2940.4 kPa	755.648 ± 0.81
363.15 K, 4979.2 kPa	757.84 ± 0.82
363.15 K, 9959.5 kPa	762.855 ± 0.82
363.15 K, 11971 kPa	764.806 ± 0.83
363.15 K, 14936 kPa	767.534 ± 0.83
363.15 K, 17973 kPa	770.255 ± 0.84
363.15 K, 19940 kPa	771.991 ± 0.84
363.15 K, 24872 kPa	776.146 ± 0.86
363.15 K, 27993 kPa	778.673 ± 0.86
363.15 K, 30062 kPa	780.285 ± 0.87
363.15 K, 31961 kPa	781.745 ± 0.88
363.15 K, 33033 kPa	782.563 ± 0.88
363.15 K, 34000 kPa	783.178 ± 0.88
363.15 K, 35028 kPa	783.945 ± 0.88
363.15 K, 37919 kPa	786.081 ± 0.89
363.15 K, 39916 kPa	787.488 ± 0.9
363.15 K, 42016 kPa	788.986 ± 0.9
363.15 K, 47947 kPa	793.03 ± 0.92
363.15 K, 50050 kPa	794.458 ± 0.93
363.15 K, 52023 kPa	795.718 ± 0.93
363.15 K, 54940 kPa	797.589 ± 0.94
363.15 K, 57917 kPa	799.479 ± 0.95
363.15 K, 59980 kPa	800.724 ± 0.96
363.15 K, 62043 kPa	802.008 ± 0.96
363.15 K, 64924 kPa	803.734 ± 0.97
363.15 K, 66088 kPa	804.418 ± 0.97
363.16 K, 6920.2 kPa	759.821 ± 0.82
363.16 K, 8964.8 kPa	761.886 ± 0.82
363.16 K, 21933 kPa	773.696 ± 0.85
363.16 K, 44987 kPa	791.029 ± 0.91
